Earlier results, collected in patent publication US8785426B1, “Testosterone gel compositions and related methods” (Upsher-Smith Laboratories, Inc., priority 2013, dated 2014).

Settings: reported solubility

C[C@]12CC[C@H]3[C@@H](CCC4=CC(=O)CC[C@@]43C)[C@@H]1CC[C@@H]2O [Testosterone, 17-β-hydroxyandrost-4-en-3-one]
solubility in ethyl alcohol: 0.17 grams per gram ethyl alcohol
